# Assay results published in ChEMBL document CHEMBL1201862, “PubChem BioAssay data set” (2004).
#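 Grown in 96-well plates, cells were treated for 48 hours with each compound at five concentrations. Insufficient inhibition: endpoint recorded as highest concentration tested. Abbreviation: GI50, concentration required for 50% inhibition of growth.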 Active and inactive are the calls of the source. Cut-off read from the data, not from the text of the source: active = GI50 up to about 1.1 µM and inactive = higher.
# Key:
# Experiment in all cases: NCI-60 cell line screen, 48 h
# NCI/ADR-RES = system: NCI/ADR-RES
# DU-145 = system: DU-145
# OVCAR-5 = system: OVCAR-5
# SF-295 = system: SF-295
# SR = system: SR
# M14 = system: M14
# A498 = system: A498
# OVCAR-8 = system: OVCAR-8
# HOP-62 = system: HOP-62
# U-251 = system: U-251
# MOLT-4 = system: MOLT-4
# HT-29 = system: HT-29
# SW-620 = system: SW-620
# MDA-MB-435 = system: MDA-MB-435
# MDA-MB-231 = system: MDA-MB-231
# SK-MEL-2 = system: SK-MEL-2
# IGROV-1 = system: IGROV-1
# 786-0 = system: 786-0
# UACC-62 = system: UACC-62
# ACHN = system: ACHN
# NCI-H522 = system: NCI-H522
# SNB-19 = system: SNB-19
# SN12C = system: SN12C
# HCC 2998 = system: HCC 2998
# SF-539 = system: SF-539
# K562 = system: K562
# HL-60 = system: HL-60
# UO-31 = system: UO-31
# LOX IMVI = system: LOX IMVI
# BT-549 = system: BT-549
# SF-268 = system: SF-268
# SK-MEL-5 = system: SK-MEL-5
# RPMI-8226 = system: RPMI-8226
# EKVX = system: EKVX
# NCI-H460 = system: NCI-H460
# A549 = system: A549
# COLO 205 = system: COLO 205
# KM12 = system: KM12
# UACC-257 = system: UACC-257
# MDA-N = system: MDA-N
# Hs-578T = system: Hs-578T
# HCT-116 = system: HCT-116
# TK-10 = system: TK-10
# NCI-H226 = system: NCI-H226
# NCI-H23 = system: NCI-H23
# CCRF-CEM = system: CCRF-CEM
# CAKI-1 = system: CAKI-1
# SNB-75 = system: SNB-75
# HOP-92 = system: HOP-92
# HCT-15 = system: HCT-15
# T47D = system: T47D
# SK-MEL-28 = system: SK-MEL-28
# RXF 393 = system: RXF 393
# OVCAR-4 = system: OVCAR-4
# PC-3 = system: PC-3
# OVCAR-3 = system: OVCAR-3
# MCF7 = system: MCF7
# SK-OV-3 = system: SK-OV-3
# Malme-3M = system: Malme-3M
smiles,measurement,setting,value
O=C(/C=C/c1ccc(OCc2cccc(Cl)c2)cc1)NO,GI50,NCI/ADR-RES,5.78 µM (inactive)
same,GI50,DU-145,15.3 µM (inactive)
same,GI50,OVCAR-5,13.9 µM (inactive)
same,GI50,SF-295,17.9 µM (inactive)
same,GI50,SR,3.55 µM (inactive)
same,GI50,M14,21 µM (inactive)
same,GI50,A498,12.1 µM (inactive)
same,GI50,OVCAR-8,6.31 µM (inactive)
same,GI50,HOP-62,18.2 µM (inactive)
same,GI50,U-251,15 µM (inactive)
same,GI50,MOLT-4,2.67 µM (inactive)
same,GI50,HT-29,13.6 µM (inactive)
same,GI50,SW-620,10.1 µM (inactive)
same,GI50,MDA-MB-435,18.5 µM (inactive)
same,GI50,MDA-MB-231,19.7 µM (inactive)
same,GI50,SK-MEL-2,18 µM (inactive)
same,GI50,IGROV-1,11.9 µM (inactive)
same,GI50,786-0,10.7 µM (inactive)
same,GI50,UACC-62,13.1 µM (inactive)
same,GI50,ACHN,11.3 µM (inactive)
same,GI50,NCI-H522,7.41 µM (inactive)
same,GI50,SNB-19,18 µM (inactive)
same,GI50,SN12C,20.6 µM (inactive)
same,GI50,HCC 2998,14.2 µM (inactive)
same,GI50,SF-539,17.2 µM (inactive)
same,GI50,K562,16.6 µM (inactive)
same,GI50,HL-60,11.1 µM (inactive)
same,GI50,UO-31,4.78 µM (inactive)
same,GI50,LOX IMVI,6.28 µM (inactive)
same,GI50,BT-549,24.8 µM (inactive)
same,GI50,SF-268,24.3 µM (inactive)
same,GI50,SK-MEL-5,16.4 µM (inactive)
same,GI50,RPMI-8226,7.48 µM (inactive)
same,GI50,EKVX,23.9 µM (inactive)
same,GI50,NCI-H460,15.9 µM (inactive)
same,GI50,A549,18.9 µM (inactive)
same,GI50,COLO 205,14 µM (inactive)
same,GI50,KM12,16.5 µM (inactive)
same,GI50,UACC-257,38 µM (inactive)
same,GI50,MDA-N,18.6 µM (inactive)
same,GI50,Hs-578T,35 µM (inactive)
same,GI50,HCT-116,11.5 µM (inactive)
same,GI50,TK-10,20.9 µM (inactive)
same,GI50,NCI-H226,14 µM (inactive)
same,GI50,NCI-H23,11.2 µM (inactive)
same,GI50,CCRF-CEM,2.65 µM (inactive)
same,GI50,CAKI-1,13.5 µM (inactive)
same,GI50,SNB-75,20.4 µM (inactive)
same,GI50,HOP-92,14.1 µM (inactive)
same,GI50,HCT-15,5.05 µM
same,GI50,T47D,7.52 µM (inactive)
same,GI50,SK-MEL-28,26.2 µM (inactive)
same,GI50,RXF 393,15.5 µM (inactive)
same,GI50,OVCAR-4,13.5 µM (inactive)
same,GI50,PC-3,12.6 µM (inactive)
same,GI50,OVCAR-3,19.2 µM (inactive)
same,GI50,MCF7,39.5 µM (inactive)
same,GI50,SK-OV-3,17.9 µM (inactive)
NC1=NCC(CN2CCOCC2)O1 (stereo unspecified),GI50,NCI/ADR-RES,> 100 µM (inactive)
same,GI50,DU-145,> 100 µM (inactive)
same,GI50,OVCAR-5,> 100 µM (inactive)
same,GI50,SF-295,> 100 µM (inactive)
same,GI50,SR,> 100 µM (inactive)
same,GI50,M14,> 100 µM (inactive)
same,GI50,A498,> 100 µM (inactive)
same,GI50,OVCAR-8,> 100 µM (inactive)
same,GI50,HOP-62,> 100 µM (inactive)
same,GI50,Malme-3M,> 100 µM (inactive)
same,GI50,U-251,> 100 µM (inactive)
same,GI50,MOLT-4,> 100 µM (inactive)
same,GI50,HT-29,> 100 µM (inactive)
same,GI50,SW-620,> 100 µM (inactive)
same,GI50,MDA-MB-435,> 100 µM (inactive)
same,GI50,MDA-MB-231,> 100 µM (inactive)
same,GI50,SK-MEL-2,> 100 µM (inactive)
same,GI50,IGROV-1,> 100 µM (inactive)
same,GI50,786-0,> 100 µM (inactive)
same,GI50,UACC-62,> 100 µM (inactive)
same,GI50,ACHN,> 100 µM (inactive)
same,GI50,NCI-H522,> 100 µM (inactive)
same,GI50,SNB-19,> 100 µM (inactive)
same,GI50,SN12C,> 100 µM (inactive)
same,GI50,HCC 2998,> 100 µM (inactive)
same,GI50,SF-539,> 100 µM (inactive)
same,GI50,K562,> 100 µM (inactive)
same,GI50,HL-60,> 100 µM (inactive)
same,GI50,UO-31,> 100 µM (inactive)
same,GI50,LOX IMVI,> 100 µM (inactive)
same,GI50,BT-549,> 100 µM (inactive)
same,GI50,SF-268,> 100 µM (inactive)
same,GI50,SK-MEL-5,> 100 µM (inactive)
same,GI50,RPMI-8226,> 100 µM (inactive)
same,GI50,EKVX,> 100 µM (inactive)
same,GI50,NCI-H460,> 100 µM (inactive)
same,GI50,A549,> 100 µM (inactive)
same,GI50,COLO 205,> 100 µM (inactive)
same,GI50,KM12,> 100 µM (inactive)
same,GI50,UACC-257,> 100 µM (inactive)
same,GI50,MDA-N,> 100 µM (inactive)
same,GI50,Hs-578T,> 100 µM (inactive)
same,GI50,HCT-116,> 100 µM (inactive)
same,GI50,TK-10,> 100 µM (inactive)
same,GI50,NCI-H23,> 100 µM (inactive)
same,GI50,CCRF-CEM,> 100 µM (inactive)
same,GI50,CAKI-1,> 100 µM (inactive)
same,GI50,SNB-75,62.2 µM (inactive)
same,GI50,HOP-92,> 100 µM (inactive)
same,GI50,HCT-15,> 100 µM
same,GI50,T47D,> 100 µM (inactive)
same,GI50,SK-MEL-28,> 100 µM (inactive)
same,GI50,RXF 393,> 100 µM (inactive)
same,GI50,OVCAR-4,> 100 µM (inactive)
same,GI50,PC-3,> 100 µM (inactive)
same,GI50,OVCAR-3,> 100 µM (inactive)
same,GI50,MCF7,> 100 µM (inactive)
same,GI50,SK-OV-3,> 100 µM (inactive)
